Test results published in PubChem BioAssay (NCI).
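Tested at 5 concentrations; 48 h exposure; 96-well plates; endpoints linearly interpolated, else capped at highest concentration. At the TGI there is no net growth.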

Columns and labels:
Assay in all cases: DTP human tumour cell line panel, 48 h
RXF 393 renal = test system: RXF 393 renal
HCC-2998 colon = test system: HCC-2998 colon
A498 renal = test system: A498 renal
NCI-H460 lung = test system: NCI-H460 lung
A549 NSCLC = test system: A549 NSCLC
SR leukemia = test system: SR leukemia
HCT-116 colon = test system: HCT-116 colon
DU-145 prostate = test system: DU-145 prostate
CCRF-CEM leukemia = test system: CCRF-CEM leukemia
UACC-257 melanoma = test system: UACC-257 melanoma
SF-539 CNS = test system: SF-539 CNS
MOLT-4 leukemia = test system: MOLT-4 leukemia
786-0 renal = test system: 786-0 renal
SF-268 CNS = test system: SF-268 CNS
KM12 colon = test system: KM12 colon
OVCAR-5 ovarian = test system: OVCAR-5 ovarian
SK-MEL-28 melanoma = test system: SK-MEL-28 melanoma
PC-3 prostate = test system: PC-3 prostate
UO-31 renal = test system: UO-31 renal
SK-MEL-2 melanoma = test system: SK-MEL-2 melanoma
HCT-15 colon = test system: HCT-15 colon
SK-MEL-5 melanoma = test system: SK-MEL-5 melanoma
T-47D breast = test system: T-47D breast
MDA-N = test system: MDA-N
K-562 leukemia = test system: K-562 leukemia
HOP-62 NSCLC = test system: HOP-62 NSCLC
SW-620 colon = test system: SW-620 colon
MCF7 breast = test system: MCF7 breast
HT29 colon = test system: HT29 colon
NCI-H522 lung = test system: NCI-H522 lung
NCI-H23 lung = test system: NCI-H23 lung
OVCAR-8 ovarian = test system: OVCAR-8 ovarian
SF-295 CNS = test system: SF-295 CNS
OVCAR-4 ovarian = test system: OVCAR-4 ovarian
HOP-92 NSCLC = test system: HOP-92 NSCLC
SK-OV-3 ovarian = test system: SK-OV-3 ovarian
UACC-62 melanoma = test system: UACC-62 melanoma
ACHN renal = test system: ACHN renal
SN12C renal = test system: SN12C renal
TK-10 renal = test system: TK-10 renal
COLO 205 colon = test system: COLO 205 colon
SNB-75 CNS = test system: SNB-75 CNS
MDA-MB-435 = test system: MDA-MB-435
CAKI-1 renal = test system: CAKI-1 renal
MALME-3M melanoma = test system: MALME-3M melanoma
OVCAR-3 ovarian = test system: OVCAR-3 ovarian
U251 CNS = test system: U251 CNS
M14 melanoma = test system: M14 melanoma
HS 578T breast = test system: HS 578T breast
IGROV1 ovarian = test system: IGROV1 ovarian
NCI/ADR-RES ovarian = test system: NCI/ADR-RES ovarian
NCI-H226 lung = test system: NCI-H226 lung
MDA-MB-231 breast = test system: MDA-MB-231 breast
BT-549 breast = test system: BT-549 breast
RPMI-8226 leukemia = test system: RPMI-8226 leukemia
SNB-19 CNS = test system: SNB-19 CNS
HL-60(TB) leukemia = test system: HL-60(TB) leukemia
LOX IMVI melanoma = test system: LOX IMVI melanoma

`O=C1CC(=O)NC(=NN2C(=O)CSC2c2ccccc2)N1` (stereo not given) was tested, and the TGI (RXF 393 renal) was > 100 µM, the TGI (HCC-2998 colon) was > 100 µM and the TGI (A498 renal) was > 100 µM. For the same compound, the TGI (NCI-H460 lung) was > 100 µM, the TGI (A549 NSCLC) was > 100 µM and the TGI (SR leukemia) was > 100 µM. For the same compound, the TGI (HCT-116 colon) was > 100 µM, the TGI (DU-145 prostate) was > 100 µM and the TGI (CCRF-CEM leukemia) was > 100 µM. For the same compound, the TGI (UACC-257 melanoma) was > 100 µM, the TGI (SF-539 CNS) was > 100 µM and the TGI (MOLT-4 leukemia) was > 100 µM. The TGI (786-0 renal) was > 100 µM, the TGI (SF-268 CNS) was > 100 µM and the TGI (KM12 colon) was > 100 µM. The TGI (OVCAR-5 ovarian) was > 100 µM, the TGI (SK-MEL-28 melanoma) was > 100 µM and the TGI (PC-3 prostate) was > 100 µM. The TGI (UO-31 renal) was > 100 µM, the TGI (SK-MEL-2 melanoma) was > 100 µM and the TGI (HCT-15 colon) was > 100 µM. The TGI (SK-MEL-5 melanoma) was > 100 µM, the TGI (T-47D breast) was > 100 µM and the TGI (MDA-N) was > 100 µM. For the same compound, the TGI (K-562 leukemia) was > 100 µM, the TGI (HOP-62 NSCLC) was > 100 µM and the TGI (SW-620 colon) was > 100 µM. For the same compound, the TGI (MCF7 breast) was > 100 µM, the TGI (HT29 colon) was > 100 µM and the TGI (NCI-H522 lung) was > 100 µM. The TGI (NCI-H23 lung) was > 100 µM, the TGI (OVCAR-8 ovarian) was > 100 µM and the TGI (SF-295 CNS) was > 100 µM. For the same compound, the TGI (OVCAR-4 ovarian) was > 100 µM, the TGI (HOP-92 NSCLC) was > 100 µM and the TGI (SK-OV-3 ovarian) was > 100 µM. For the same compound, the TGI (UACC-62 melanoma) was > 100 µM, the TGI (ACHN renal) was > 100 µM and the TGI (SN12C renal) was > 100 µM. For the same compound, the TGI (TK-10 renal) was > 100 µM, the TGI (COLO 205 colon) was > 100 µM and the TGI (SNB-75 CNS) was > 100 µM. For the same compound, the TGI (MDA-MB-435) was > 100 µM, the TGI (CAKI-1 renal) was > 100 µM and the TGI (MALME-3M melanoma) was > 100 µM. For the same compound, the TGI (OVCAR-3 ovarian) was > 100 µM, the TGI (U251 CNS) was > 100 µM and the TGI (M14 melanoma) was > 100 µM. For the same compound, the TGI (HS 578T breast) was > 100 µM, the TGI (IGROV1 ovarian) was > 100 µM and the TGI (NCI/ADR-RES ovarian) was > 100 µM. For the same compound, the TGI (NCI-H226 lung) was > 100 µM, the TGI (MDA-MB-231 breast) was > 100 µM and the TGI (BT-549 breast) was > 100 µM. For the same compound, the TGI (RPMI-8226 leukemia) was > 100 µM.

For `CN(C)CCCNC(=O)N/N=C/c1ccc([N+](=O)[O-])cc1`, the TGI (HCC-2998 colon) was > 100 µM, the TGI (A498 renal) was > 100 µM and the TGI (NCI-H460 lung) was > 100 µM. The TGI (A549 NSCLC) was > 100 µM, the TGI (SR leukemia) was > 100 µM and the TGI (HCT-116 colon) was > 100 µM. The TGI (DU-145 prostate) was > 100 µM, the TGI (CCRF-CEM leukemia) was > 100 µM and the TGI (UACC-257 melanoma) was > 100 µM. For the same compound, the TGI (SF-539 CNS) was > 100 µM, the TGI (MOLT-4 leukemia) was > 100 µM and the TGI (786-0 renal) was > 100 µM. For the same compound, the TGI (SF-268 CNS) was > 100 µM, the TGI (KM12 colon) was > 100 µM and the TGI (OVCAR-5 ovarian) was > 100 µM. The TGI (SK-MEL-28 melanoma) was > 100 µM, the TGI (PC-3 prostate) was > 100 µM and the TGI (UO-31 renal) was > 100 µM. For the same compound, the TGI (SK-MEL-2 melanoma) was > 100 µM, the TGI (HCT-15 colon) was > 100 µM and the TGI (SK-MEL-5 melanoma) was > 100 µM. For the same compound, the TGI (T-47D breast) was > 100 µM, the TGI (MDA-N) was > 100 µM and the TGI (K-562 leukemia) was > 100 µM. The TGI (HOP-62 NSCLC) was > 100 µM, the TGI (SW-620 colon) was > 100 µM and the TGI (MCF7 breast) was > 100 µM. The TGI (HT29 colon) was > 100 µM, the TGI (NCI-H522 lung) was > 100 µM and the TGI (NCI-H23 lung) was > 100 µM. The TGI (OVCAR-8 ovarian) was > 100 µM, the TGI (SF-295 CNS) was > 100 µM and the TGI (SK-OV-3 ovarian) was > 100 µM. The TGI (UACC-62 melanoma) was > 100 µM, the TGI (ACHN renal) was > 100 µM and the TGI (SN12C renal) was > 100 µM. The TGI (TK-10 renal) was > 100 µM, the TGI (SNB-19 CNS) was > 100 µM and the TGI (COLO 205 colon) was > 100 µM. The TGI (SNB-75 CNS) was > 100 µM, the TGI (MDA-MB-435) was > 100 µM and the TGI (CAKI-1 renal) was > 100 µM. The TGI (HL-60(TB) leukemia) was > 100 µM, the TGI (MALME-3M melanoma) was > 100 µM and the TGI (OVCAR-3 ovarian) was > 100 µM. For the same compound, the TGI (U251 CNS) was > 100 µM, the TGI (M14 melanoma) was > 100 µM and the TGI (HS 578T breast) was > 100 µM. The TGI (IGROV1 ovarian) was > 100 µM, the TGI (NCI/ADR-RES ovarian) was > 100 µM and the TGI (NCI-H226 lung) was > 100 µM. The TGI (MDA-MB-231 breast) was > 100 µM and the TGI (BT-549 breast) was > 100 µM.

For `COc1cc(C[C@@H](C)N)cc(OC)c1`, the TGI (RXF 393 renal) was > 100 µM, the TGI (HCC-2998 colon) was > 100 µM and the TGI (A498 renal) was > 100 µM. The TGI (NCI-H460 lung) was > 100 µM, the TGI (A549 NSCLC) was > 100 µM and the TGI (SR leukemia) was > 100 µM. The TGI (HCT-116 colon) was > 100 µM, the TGI (DU-145 prostate) was > 100 µM and the TGI (CCRF-CEM leukemia) was > 100 µM. For the same compound, the TGI (UACC-257 melanoma) was > 100 µM, the TGI (SF-539 CNS) was > 100 µM and the TGI (MOLT-4 leukemia) was > 100 µM. For the same compound, the TGI (786-0 renal) was > 100 µM, the TGI (SF-268 CNS) was > 100 µM and the TGI (KM12 colon) was > 100 µM. The TGI (OVCAR-5 ovarian) was > 100 µM, the TGI (SK-MEL-28 melanoma) was > 100 µM and the TGI (PC-3 prostate) was > 100 µM. The TGI (UO-31 renal) was > 100 µM, the TGI (SK-MEL-2 melanoma) was > 100 µM and the TGI (HCT-15 colon) was > 100 µM. The TGI (SK-MEL-5 melanoma) was > 100 µM, the TGI (T-47D breast) was > 100 µM and the TGI (MDA-N) was > 100 µM. The TGI (K-562 leukemia) was > 100 µM, the TGI (HOP-62 NSCLC) was > 100 µM and the TGI (SW-620 colon) was > 100 µM. The TGI (MCF7 breast) was > 100 µM, the TGI (HT29 colon) was > 100 µM and the TGI (NCI-H522 lung) was > 100 µM. The TGI (NCI-H23 lung) was > 100 µM, the TGI (OVCAR-8 ovarian) was > 100 µM and the TGI (SF-295 CNS) was > 100 µM. For the same compound, the TGI (OVCAR-4 ovarian) was > 100 µM, the TGI (SK-OV-3 ovarian) was > 100 µM and the TGI (UACC-62 melanoma) was > 100 µM. For the same compound, the TGI (ACHN renal) was > 100 µM, the TGI (SN12C renal) was > 100 µM and the TGI (TK-10 renal) was > 100 µM. For the same compound, the TGI (SNB-19 CNS) was > 100 µM, the TGI (COLO 205 colon) was > 100 µM and the TGI (SNB-75 CNS) was 98.4 µM. For the same compound, the TGI (MDA-MB-435) was > 100 µM, the TGI (CAKI-1 renal) was > 100 µM and the TGI (HL-60(TB) leukemia) was > 100 µM. For the same compound, the TGI (MALME-3M melanoma) was > 100 µM, the TGI (OVCAR-3 ovarian) was > 100 µM and the TGI (U251 CNS) was > 100 µM. For the same compound, the TGI (M14 melanoma) was > 100 µM, the TGI (HS 578T breast) was > 100 µM and the TGI (IGROV1 ovarian) was > 100 µM. The TGI (NCI/ADR-RES ovarian) was > 100 µM, the TGI (NCI-H226 lung) was > 100 µM and the TGI (MDA-MB-231 breast) was > 100 µM. For the same compound, the TGI (BT-549 breast) was > 100 µM, the TGI (LOX IMVI melanoma) was > 100 µM and the TGI (RPMI-8226 leukemia) was > 100 µM.
